The test system of assay [1] is C3H10T1/2 adipocytes. Description: Immunoblot analysis of C3H10T1/2 adipocytes (PKA signaling, mitochondrial enzymes). The conditions noted are these: for levels of phosphorylated HSL, CREB and PKA substrates / mitochondrial enzymes, including MCAD, ATP5A, UQCRC2, SDHB, NDUFB8, and COXIV: 1 μM; for levels of phosphorylated HSL, CREB and PKA substrates: 24 or 48 hours, vs vehicle, FIG. 1A; for mitochondrial enzymes, including MCAD, ATP5A, UQCRC2, SDHB, NDUFB8, and COXIV: long-term treatment (48 hours), FIG. 1B. It counts as cell-based. The protocol:
(§1) C3H10T1/2 cells were purchased from the American Type Culture Collection (ATCC), and in vitro adipocyte experiments were performed using these cells, which were cultured in DMEM (Welgene) supplemented with 10% FBS (Gibco) and 1% P/S at 37° C. in a humidified atmosphere of 5% CO2. To prepare fully differentiated C3H10T1/2 adipocytes, confluent C3H10T1/2 cells were exposed to BMP4 (R&D system, 20 ng/ml) for 2 days, and induced in a differentiation medium containing IBMX (isobutylmethylxanthine, Cayman, 0.5 mM), dexamethasone (Cayman, 1 μM), insulin (Sigma, 10 μg/mL), indomethacin (Cayman, 0.125 mM), and triiodothyronine (T3, Cayman, 1 nM) for 3 days, then exposed to a maintenance medium containing insulin (1 μg/mL) and T3 (1 nM) for 3 days. To evaluate in vitro effects of lysoplasmalogen, the fully differentiated C3H10T1/2 cells were treated with vehicle control, LPE P-18:0 (1 μM) or LPC P-18:0 (1 μM), LPC P-16:0. (10 μM) or isoproterenol (10 μM) for an indicated time.
(§2) BAT, iWAT and gWAT of mice fed a HFD and administered vehicle control or LPE P-18:0 intraperitoneally were homogenized using the tacoPrep Bead Beater homogenization system in a PROPREP protein extraction solution (iNtRON Biotechnology) containing SIGMAFAST Protease Inhibitor Cocktail (Sigma) and PhoSTOP phosphatase inhibitor (Roche). C3H10T1/2 adipocytes treated with vehicle control, LPE P-18:0 (1 μM) or LPC P-18:0 (1 μM), LPC P-16:0 (10 µM) or isoproterenol (10 μM) were lysed in RIPA Lysis and Extraction Buffer (Thermo Fisher Scientific) containing SIGMAFAST protease inhibitor cocktail (Sigma) and PhoSTOP phosphatase inhibitor (Roche). The extracted protein concentration was quantified by BCA analysis and measured by spectrophotometry at 562 nm (MultiSkan GO, Thermo Fisher Scientific). Proteins were denatured in an SDS sample buffer at 95° C. for 5 min, separated in SDS-PAGE gel, and transferred to a PVDF membrane (Bio-Rad). The membrane was blocked with BSA in 5% non-fat dry milk or TBST (Tris-buffered saline containing 0.1% Tween 20) and incubated overnight along with the primary antibody at 4° C., then cultured with horseradish peroxidase (HRP)-conjugated secondary antibody for 1 hour at room temperature. The primary antibody used for Western blot analysis are listed in Reagents or Resources. Protein expression was detected by a Fusion Solo chemiluminescence imaging system (Vilber Lourmat) and analyzed with EvolutionCapt software (version 17.03). Immunoblots were quantified with National Institutes of Health ImageJ software (version 1.52a).

Assay [2] relates to C3H10T1/2 adipocytes. The assay is described as follows: Oxygen consumption rate (Seahorse XF, Cell Mito Stress Test). It counts as cell-based. The following applies: 1 μM; FIGS. 2B and 2C. The protocol: as §1
Oxygen consumption rates (OCRs) were measured with a Seahorse XF Analyzer (Agilent). The differentiated C3H10T1/2 adipocytes […] treated with LPC P-18:0 (1 μM), LPE P-18:0 or vehicle were washed, and maintained in an assay medium (XF DMEM basal medium, pH 7.4 (Agilent)) supplemented with D-(+)-glucose (25 mM) and L-glutamine (4 mM). The XFp Cell Mito Stress Test Kit (Agilent) was used at concentrations of 2.5 μM oligomycin, 0.5 μM carbonyl cyanide-4-(trifluoromethoxy) phenylhydrazone (FCCP) and 0.5 µM rotenone/antimycin A. Basal and maximal OCRs were calculated by subtracting non-mitochondrial respiration. The ATP production rate was calculated by subtracting the OCR induced by oligomycin A from the basal OCR. Spare respiratory capacity was calculated by subtracting baseline OCR from the maximal OCR. The OCR was normalized to protein concentration. Data were analyzed using Agilent Wave software (version 2.6.0.31).

Assay [3] deals with C3H10T1/2 adipocytes. The assay is described as follows: Quantification of intracellular cAMP level (Direct cAMP ELISA). It counts as cell-based. The conditions noted are these: 1 μM, 24 hours; FIG. 2A. As to the method: as §1, with “To evaluate in vitro effects of lysoplasmalogen, the fully differentiated C3H10T1/2 cells were treated with vehicle control, LPE P-18:0 (1 μM) or LPC P-18:0 (1 μM), LPC P-16:0. (10 μM) or isoproterenol (10 μM) for an indicated time.” left out
To measure intracellular CAMP levels in the differentiated C3H10T1/2 adipocytes treated with LPC P-18:0 (1 μM), LPE P-18:0 (1 μM) or isoproterenol (10 μM), The Direct CAMP ELISA Kit (Enzo) was used according to the manufacturer's instructions. […] The absorbance of the plate was measured at 405 nm, and the calculated absorbance was converted into pmol/ml of CAMP using AssayFit Pro (v1.31), and normalized to protein concentration measured with the Pierce BCA Protein Assay Kit (Thermo Fisher Scientific).
For orientation: Cyclic AMP is a second messenger, typically raised through Gs and lowered through Gi signalling.

Assay [4] deals with adipose tissues of HFD-fed mice. Description: Immunoblot analysis of BAT, iWAT and gWAT of HFD-fed mice. It counts as in vivo. The conditions noted are these: 200 μg/kg/day intraperitoneally for 2 weeks, FIGS. 3A, 3B. The protocol:
as §2, with “Proteins were denatured in an SDS sample buffer at 95° C. for 5 min, separated in SDS-PAGE gel, and transferred to a PVDF membrane (Bio-Rad). The membrane was blocked with BSA in 5% non-fat dry milk or TBST (Tris-buffered saline containing 0.1% Tween 20) and incubated overnight along with the primary antibody at 4° C., then cultured with horseradish peroxidase (HRP)-conjugated secondary antibody for 1 hour at room temperature. The primary antibody used for Western blot analysis are listed in Reagents or Resources.” left out
For the diet-induced obesity model, 8-week-old mice were fed a HFD (60% fat, Research Diets, cat #D12492) for 8 weeks. […] Body compositions were measured by nuclear magnetic resonance (NMR) scanning EchoMRI-700 (Echo Medical Systems). […]
For orientation: In western blotting, separated proteins are transferred to a membrane and probed.

For assay [5], the system named is HFD-fed mice. The assay is described as follows: Indirect calorimetry analysis in HFD-fed mice. It counts as in vivo. The conditions noted are these: 200 μg/kg/day intraperitoneally for 2 weeks. The protocol:
(§3) For the diet-induced obesity model, 8-week-old mice were fed a HFD (60% fat, Research Diets, cat #D12492) for 8 weeks. Standardized rodent pellet feed (NCD, Purina, cat #38057) was used as the control feed. Energy expenditure (EE) was estimated by an indirect calorimeter (PhenoMaster, TSE Systems, Germany). Body compositions were measured by nuclear magnetic resonance (NMR) scanning EchoMRI-700 (Echo Medical Systems). To investigate effects of treatment with LPE P-18:0, the mice were fed a HFD for 8 weeks and injected intraperitoneally with LPE P-18:0 (Avanti Polar Lipids, 200 μg/kg/day, cat #852471P) or vehicle for 2 weeks.

Assay [6] has as its system HFD-fed mice. The assay is described as follows: Glucose tolerance test in HFD-fed mice. It counts as in vivo. The conditions noted are these: 200 μg/kg/day intraperitoneally for 2 weeks, FIG. 4. As to the method:
as §3

Assay [7] relates to HFD-fed mice. The assay is described as follows: Intraperitoneal insulin tolerance test (ITT). It counts as in vivo. The following applies: 200 μg/kg/day intraperitoneally for 2 weeks, insulin 0.75 units/kg i.p., FIG. 5E. The protocol: as §3
For the insulin tolerance test, the mice were fasted for 6 hours before the test, was injected intraperitoneally with insulin (Sigma, 0.75 units/kg body weight, cat #91077C-1G), and blood glucose was measured at a designated time interval.

Assay [8] relates to HFD-fed mice. Description: Body weight and body composition in diet-induced obesity model. The conditions noted are these: 200 μg/kg/day intraperitoneally for 2 weeks, FIG. 5. It counts as in vivo. As to the method: as §3

With `CCCCCCCCCCCCCC/C=C\OC[C@@H](O)COP(=O)([O-])OCC[N+](C)(C)C` [LPC P-16:0], the “levels of phosphorylated HSL and CREB” value in assay [1] (10 μM, 4 hours, vs vehicle (4 mg/mL fatty acid-free BSA), FIG. 6) was “significant increase”.
Take `CCCCCCCCCCCCCCCC/C=C\OC[C@@H](O)COP(=O)([O-])OCC[N+](C)(C)C` [LPC P-18:0]: in assay [2], the ATP production rate entry is on record as “increase”, the maximum respiration rate result is “increase” and the spare respiratory capacity entry is “increase”. Besides, the “intracellular cAMP levels” value in assay [3] is “increase”. Besides, in assay [1], the “levels of phosphorylated HSL, CREB and PKA substrates” value is “significant increase”; the “mitochondrial enzymes, including MCAD, ATP5A, UQCRC2, SDHB, NDUFB8, and COXIV” value is “significant upregulation”.
Consider `CCCCCCCCCCCCCCCC/C=C\OC[C@@H](O)COP(=O)(O)OCCN` [LPE P-18:0], for which the “PKA signaling and mitochondrial activity in the adipose tissues” value in assay [4] is recorded as “upregulates”. For the same compound, in assay [2], the ATP production rate entry was “increase”, the maximum respiration rate result is reported as “increase” and the spare respiratory capacity entry is recorded as “increase”. Besides, in assay [5], the Food intake result is given as “decreased” and the activity result is “increased”. Besides, in assay [5] (FIGS. 5C, 5D), the VO2 result is on record as “increased” and the energy expenditure result is “increased”. Also, the glucose tolerance entry in assay [6] is listed as “improves”. Further, the “intracellular cAMP levels” value in assay [3] was “increase”. Moreover, in assay [1], the “levels of phosphorylated HSL, CREB and PKA substrates” value is given as “significant increase”; the “mitochondrial enzymes, including MCAD, ATP5A, UQCRC2, SDHB, NDUFB8, and COXIV” value was “significant upregulation”. Also, in assay [7], the insulin tolerance entry is given as “decreased”. In assay [8], the body fat mass entry is “decreased” and the body weight result is “decreased”.

(Values after patent US20240408122A1, “PHARMACEUTICAL COMPOSITION FOR PREVENTION OR TREATMENT OF METABOLIC DISEASE COMPRISING LYSOPHOSPHOLIPID” (SEOUL NATIONAL UNIVERSITY R&DB FOUNDATION, priority 2021, published 2024).)
